The target in data set [1] is T1, LRRK2 (Mus musculus, UniProt Q5S006, G2019S).
T1 construct: tissue Jackson Laboratory 012467; host or cells: brain homogenate of G2019S-LRRK2-BAC transgenic mice
The data set can be described thus: brain LRRK2 GTP binding in G2019S-LRRK2-BAC transgenic mice. To be noted: for effect on brain LRRK2 GTP binding activity: 1 h after injection. The data set is classed as in vivo. The procedure:
(§1) To assess whether 70 and 68 alter LRRK2 activities in vivo, G2019S-LRRK2-BAC transgenic mice were used. […] Only the effects of 68 on LRRK2 functions were tested in vivo using G2019S-LRRK2-BAC transgenic mice. Vehicle or 68 at 10 and 20 mg/kg was injected intraperitoneally for one hour. Mouse brain homogenates were subjected to LRRK2 autophosphorylation and GTP binding assays.
(§2) LRRK2 kinase assay was adapted from previous studies using autophosphorylation of cell lysates or brain homogenates. Briefly, HEK 293T were transiently transfected with various LRRK2 variants or kinase domain fragments for 36 h, followed by […] serum starvation for 12 h, and then treated with compound 70 and 68 for 1 h. The cells were harvested using lysis buffer (Cell Signaling). Mouse brains were homogenated using RIPA buffer (Cell Signaling). The resulting cell lysates or brain homogenates were immunoprecipitated using anti-Flag antibodies. The immunoprecipitates were subjected to Western blot using anti-phosphorylation LRRK2 antibodies at S935 and S2032 residues as described previously. In some cases, immunoprecipitates were incubated with kinase reaction buffer for 90 min at 30° C. containing 50 mM MgCl2, 500 μM ATP, and 10 μCi of [γ-^32P]ATP (3,000 Ci/mmol) followed by 4-12% SDS/PAGE separation and blotted onto PVDF membranes. Quantification was performed with a phosphoimager (Bio-Rad Molecular Imager FX). GTP binding assays were performed. Cell lysates or brain homogenates (100 μg protein/per reaction) were incubated with vehicle or compounds at 1-50 μM concentration for 1 h followed by addition of GTP-agarose beads (Sigma) for an additional 2 h at 4° C. The resulting beads were washed three times with cell lysis buffer, and bound protein was eluted by adding SDS-PAGE sample buffer and heating for 10 min at 72° C. Precipitates were subjected to Western blot analysis using anti-Flag antibodies.
To assess the effects of FX2149 on LRRK2 in brains compared with 68, both 68 and FX2149 were injected intraperitoneally into G2019S-BAC-LRRK2 transgenic mice at 10 and 20 mg/kg doses. One hour after the injection, the mouse brain homogenates were subjected to LRRK2 GTP binding and kinase assays. Both 68 (20 mg/kg) and FX2149 (10 mg/kg) reduced LRRK2 GTP binding activity in mouse brains (FIGS. 32 and 33). […] To further confirm the effect of FX2149, we also assessed a LRRK2 downstream effector, 4E-BP phosphorylation. 4E-BP is a […] that can be phosphorylated by LRRK2. […] FX2149 at a 10 mg/kg dose reduced 4E-BP up to 15% of the untreated control group, while 68 at a 20 mg/kg dose reduced 4E-BP up to 15% of the untreated control group.

The test system of data set [2] is SH-SY5Y cells expressing mutant G2019S-LRRK2. The data set can be described thus: TUNEL assay in SH-SY5Y cells expressing mutant LRRK2. The format is cell-based, human. To be noted: 100 nM. The procedure:
Expression of mutant G2019S-LRRK2 led to neuronal degeneration in both SH-SY5Y and mouse primary cortical neurons as assessed by cell viability and DNA fragmentation (TUNEL) assays as previously described. […] To further confirm these findings, mouse primary cortical neurons were used to assess the effects of 70 and 68. Treatment of 70 (2 and 5 nM) and 68 (5 and 10 nM) protected against mutant LRRK2-induced neuronal degeneration (FIG. 15, panels (a) and (c)). Moreover, 70 and 68 both decreased the TUNEL-positive SH-SY5Y cells expressing mutant LRRK2 (FIG. 15, panel (d)).
SH-SY5Y cell viability assays were conducted as described. Cells were co-transfected with GFP and various pcDNA3.1-LRRK2 plasmids at a 1:15 ratio for 24 h in 10% FBS OPTI-I media and then changed to DMEM with N2 supplement for 24 h. Compounds were added after 4-h transfection. Cell viability was measured by counting the healthy viable cells that contained at least one smooth extension (neurite) that was twice the length of the cell body from 20 randomly selected fields using fluorescence microscopy. TUNEL assays were performed according to the manufacturer's instructions as described previously. The experiments were repeated three times in duplicate. The quantification for LRRK2 toxicity was performed by an investigator who was blind to transfection groups.

In data set [3] the target is T1, LRRK2. The data set can be described thus: brain LRRK2 phosphorylation (kinase activity) in G2019S-LRRK2-BAC transgenic mice. The data set is classed as in vivo. The settings on record: 1 h after injection. The procedure: as §1
LRRK2 kinase assay was adapted from previous studies using autophosphorylation of cell lysates or brain homogenates. Briefly, HEK 293T were transiently transfected with various LRRK2 variants or kinase domain fragments for 36 h, followed by no serum starvation for 12 h, and then treated with compound 70 and 68 for 1 h. The cells were harvested using lysis buffer (Cell Signaling). Mouse brains were homogenated using RIPA buffer (Cell Signaling). The resulting cell lysates or brain homogenates were immunoprecipitated using anti-Flag antibodies. […] Quantification was performed with a phosphoimager (Bio-Rad Molecular Imager FX). […]
To assess the effects of FX2149 on LRRK2 in brains compared with 68, both 68 and FX2149 were injected intraperitoneally into G2019S-BAC-LRRK2 transgenic mice at 10 and 20 mg/kg doses. […] To further confirm the effect of FX2149, we also assessed a LRRK2 downstream effector, 4E-BP phosphorylation. […]

Data set [4] relates to LRRK2. Description: LRRK2 GTP binding assay (GTP-agarose pull-down from lysates of transfected HEK293T cells). Further details: species or system human. The settings on record: for effect on wild type and PD-linked mutant LRRK2 GTP-binding activity: 10 μM. The procedure: as §2, with “Cell lysates or brain homogenates (100 μg protein/per reaction) were incubated with vehicle or compounds at 1-50 μM concentration for 1 h followed by addition of GTP-agarose beads (Sigma) for an additional 2 h at 4° C.” left out
GTP binding assays were performed using GTP-agarose beads (Sigma) as described previously. Lysates of HEK 293T cells expressing LRRK2 proteins were incubated with 68 or FX2149 at various concentrations for 1 h. The GTP-agarose beads were added for an additional 2 h. The samples were subjected to Western blot analysis using anti-Flag antibodies. LRRK2 kinase assays were performed using LRRK2 phosphorylation and in vitro ^32P incorporation methods as described previously.

The test system of data set [5] is LPS-induced microglia activation and LRRK2 upregulation. Description: LPS-based mouse neuroinflammation model, immunohistochemistry of substantia nigra. The format is in vivo. The procedure: G2019S-LRRK2-BAC (Jackson, Lab. Cat: 012467) transgenic mice were food deprived for 4 h before surgery. There were 4 to 6 mice in each experimental group. Mice were anesthetized with isoflurane. LPS ([…] containing 15,000 endotoxin units, Sigma) was injected into the substantia nigra pars compacta unilaterally with a 1 μl volume at 0.2 μl/min flow rate as described previously. The stereotaxic coordinates were −3.4 anteroposterior (AP), −1.1 ML, and −3.9 DV with respect to bregma. After injection, the needle was kept in place for 5 min before withdrawal to avoid LPS leakage up the cannula track. […] Then 68 was injected twice daily for three days. The mice were perfused with 4% paraformaldehyde (PFA) in PBS and the brains were dissected and frozen in isopentane and stored in a −80° C. freezer for immunostaining Animal usage was approved by the University of Maryland School of Pharmacy.
Mice were perfused with saline and 4% paraformaldehyde. Frozen mouse brains were sectioned through the substantia nigra at 30 μm and the sections were subjected to immunohistochemical analysis as described previously. Briefly, frozen sections were placed in 0.6% H2O2 in methanol for 10 min followed by 5% normal goat serum (Sigma) to block non-specific reactions. Sections were then sequentially incubated with primary antibodies and biotinylated anti-rabbit secondary antibodies (Vector Laboratories) and avidin-biotin-peroxidase complex (ABC Elite kit, Vector Laboratories). Anti-LRRK2 (MJFF), anti-phosphorylated LRRK2 S935 (MJFF), and anti-isolectin antibodies were used as primary antibodies. Isolectin-B4:FITC or Isolectin-B4:Biotin were from Sigma. Some tissue sections were visualized by peroxidase reaction using diaminobenzidine (DAB, Sigma). Some tissue sections were probed with Alexa Fluor 488 goat anti-mouse (rabbit) IgG and Alexa Fluor 568 goat anti-mouse (rabbit) IgG (Invitrogen) as secondary antibodies. The specificity of the immunostaining was checked by incubating adjacent sections with each preabsorbed primary antibody. […] The density of red and green fluorescence in the 6 consecutive sections crossing the LPS injection site of each mouse was quantified using NIH image-J software. Six microscope field images (20×) from one brain section were subjected to fluorescence density quantification. […]
G2019S-LRRK2-BAC transgenic mice were anesthetized with isoflurane and injected with LPS (15,000 endotoxin units, 5 μg, Sigma) for each mouse in the substantia nigra pars compacta (SN) unilaterally as described previously. […] Some sections were added with anti-rabbit (mouse) biotinylated secondary antibody and avidin-biotin-peroxidase complex (Vector Laboratories), and detected by diaminobenzidine (DAB, Sigma). […]

For data set [6], the system named is SH-SY5Y cells expressing G2019S-LRRK2. Description: SH-SY5Y cell viability assay (G2019S-LRRK2-induced neuronal degeneration). The data set is classed as cell-based, human. The procedure:
Mouse primary cortical neurons were derived from CD-1 outbred mice (The Jackson Laboratory) at embryonic day 16 and cultured on 24 well plates coated with laminin- and poly-D-lysine-coated plates (BD Biosource, San Diego). Neurons were grown in neurobasal medium containing B-27 supplement, Glutamax, and penicillin/streptomycin. LRRK2 constructs were transfected into mouse primary cortical neurons using Lipofectamine 2000 (Invitrogen) according to the manufacturer's protocol. Cell viability assays were conducted. pcDNA3.1-GFP and FLAG-LRRK2 constructs at 1:15 ratio were cotransfected into SH-SY5Y cells (neurons) in 10% FBS OPTI-I media for 24 h. The media were changed to DMEM containing N2 supplement for 24 h. Cell viability was measured by counting GFP-positive viable cells (neurons) from 20 randomly selected fields using fluorescence microscopy. Viable cells (neurons) with one smooth extension (neurite) twice the length of the cell body were counted.
SH-SY5Y cell viability assays were conducted as described. […] Cell viability was measured by counting the healthy viable cells that contained at least one smooth extension (neurite) that was twice the length of the cell body from 20 randomly selected fields using fluorescence microscopy. […] The quantification for LRRK2 toxicity was performed by an investigator who was blind to transfection groups.

For a further data set, the target named is T2, G2019S-LRRK2 (Homo sapiens, UniProt Q5S007, G2019S).
T2 construct: expressed in transfected cells; host or cells: HEK293T
The data set can be described thus: LRRK2 phosphorylation (kinase) assay in HEK293T cells expressing G2019S-LRRK2. The settings on record: 1 h. The format is cell-based. The procedure:
as §2, with “Cell lysates or brain homogenates (100 μg protein/per reaction) were incubated with vehicle or compounds at 1-50 μM concentration for 1 h followed by addition of GTP-agarose beads (Sigma) for an additional 2 h at 4° C. The resulting beads were washed three times with cell lysis buffer, and bound protein was eluted by adding SDS-PAGE sample buffer and heating for 10 min at 72° C. Precipitates were subjected to Western blot analysis using anti-Flag antibodies.” left out
For LRRK2 phosphorylation assays, HEK293T cells were transfected with various LRRK2 variants for 36 h, then were incubated in media without serum for 12 hours. […] The LRRK2 autophosphorylation with ^32P incorporation was separated by SDS/PAGE gel and quantified with a phosphoimager (Bio-Rad Molecular Imager).

T1 sequence (Q5S006 whole entry G2019S): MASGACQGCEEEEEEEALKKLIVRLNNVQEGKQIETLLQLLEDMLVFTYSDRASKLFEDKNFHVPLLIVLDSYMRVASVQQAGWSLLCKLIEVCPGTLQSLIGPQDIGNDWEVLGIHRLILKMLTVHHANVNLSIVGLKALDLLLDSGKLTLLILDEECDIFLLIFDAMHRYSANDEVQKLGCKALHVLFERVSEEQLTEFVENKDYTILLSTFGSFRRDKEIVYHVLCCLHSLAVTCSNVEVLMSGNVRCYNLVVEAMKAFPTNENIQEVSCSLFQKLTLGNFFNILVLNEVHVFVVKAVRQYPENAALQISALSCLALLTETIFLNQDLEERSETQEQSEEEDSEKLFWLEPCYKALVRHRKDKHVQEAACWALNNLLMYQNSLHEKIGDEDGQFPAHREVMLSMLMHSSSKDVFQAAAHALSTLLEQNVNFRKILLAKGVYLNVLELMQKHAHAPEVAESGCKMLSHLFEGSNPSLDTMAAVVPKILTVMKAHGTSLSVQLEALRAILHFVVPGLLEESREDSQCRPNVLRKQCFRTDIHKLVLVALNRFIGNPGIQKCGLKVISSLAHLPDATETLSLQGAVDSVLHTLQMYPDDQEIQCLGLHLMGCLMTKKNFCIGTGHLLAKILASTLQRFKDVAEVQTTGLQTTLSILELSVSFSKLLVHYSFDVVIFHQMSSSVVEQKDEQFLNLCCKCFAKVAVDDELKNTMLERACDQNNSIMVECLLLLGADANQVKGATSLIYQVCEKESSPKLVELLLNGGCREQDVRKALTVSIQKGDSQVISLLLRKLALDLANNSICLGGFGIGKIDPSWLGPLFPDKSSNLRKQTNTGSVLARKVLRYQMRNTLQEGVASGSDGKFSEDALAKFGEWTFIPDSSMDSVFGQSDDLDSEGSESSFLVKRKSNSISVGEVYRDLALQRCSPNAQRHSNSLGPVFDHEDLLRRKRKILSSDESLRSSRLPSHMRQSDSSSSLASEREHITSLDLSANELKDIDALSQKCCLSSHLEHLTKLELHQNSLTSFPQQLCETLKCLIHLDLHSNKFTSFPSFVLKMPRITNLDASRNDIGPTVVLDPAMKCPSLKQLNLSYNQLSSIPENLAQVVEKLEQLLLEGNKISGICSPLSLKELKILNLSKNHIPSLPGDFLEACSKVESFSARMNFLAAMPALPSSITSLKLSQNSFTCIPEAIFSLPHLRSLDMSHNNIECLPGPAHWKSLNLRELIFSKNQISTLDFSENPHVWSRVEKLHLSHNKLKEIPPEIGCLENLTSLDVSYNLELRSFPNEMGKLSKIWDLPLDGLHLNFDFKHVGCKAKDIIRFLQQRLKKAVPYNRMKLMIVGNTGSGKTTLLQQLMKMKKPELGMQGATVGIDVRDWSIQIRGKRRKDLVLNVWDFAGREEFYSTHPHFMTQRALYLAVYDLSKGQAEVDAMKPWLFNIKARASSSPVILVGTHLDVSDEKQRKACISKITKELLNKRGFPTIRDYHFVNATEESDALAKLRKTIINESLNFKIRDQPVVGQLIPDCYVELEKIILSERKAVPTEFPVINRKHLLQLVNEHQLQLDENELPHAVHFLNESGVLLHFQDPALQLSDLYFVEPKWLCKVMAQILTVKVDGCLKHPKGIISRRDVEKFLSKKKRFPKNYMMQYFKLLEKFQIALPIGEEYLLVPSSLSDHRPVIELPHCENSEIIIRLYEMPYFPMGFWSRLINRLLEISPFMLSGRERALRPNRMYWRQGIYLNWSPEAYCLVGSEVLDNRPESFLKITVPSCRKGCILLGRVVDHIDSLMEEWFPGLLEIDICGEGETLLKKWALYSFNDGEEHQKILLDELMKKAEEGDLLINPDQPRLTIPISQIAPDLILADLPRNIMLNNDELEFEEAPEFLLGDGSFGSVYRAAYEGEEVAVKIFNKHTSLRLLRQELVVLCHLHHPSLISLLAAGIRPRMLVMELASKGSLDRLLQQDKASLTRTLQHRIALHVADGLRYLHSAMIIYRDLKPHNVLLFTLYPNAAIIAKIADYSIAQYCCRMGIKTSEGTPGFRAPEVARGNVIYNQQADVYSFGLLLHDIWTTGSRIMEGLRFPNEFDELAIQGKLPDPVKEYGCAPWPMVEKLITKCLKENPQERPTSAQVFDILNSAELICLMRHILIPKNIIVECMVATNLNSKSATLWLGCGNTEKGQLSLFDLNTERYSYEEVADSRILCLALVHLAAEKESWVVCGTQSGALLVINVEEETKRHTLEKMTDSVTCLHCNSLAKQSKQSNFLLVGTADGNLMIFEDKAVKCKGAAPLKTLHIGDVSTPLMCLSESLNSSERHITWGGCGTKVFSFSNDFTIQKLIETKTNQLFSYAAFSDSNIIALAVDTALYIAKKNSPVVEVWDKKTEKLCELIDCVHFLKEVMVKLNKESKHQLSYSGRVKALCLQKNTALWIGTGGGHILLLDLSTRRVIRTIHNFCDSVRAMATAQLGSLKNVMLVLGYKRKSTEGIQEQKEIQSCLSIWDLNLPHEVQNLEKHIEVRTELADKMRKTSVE
T2 sequence (Q5S007 whole entry G2019S): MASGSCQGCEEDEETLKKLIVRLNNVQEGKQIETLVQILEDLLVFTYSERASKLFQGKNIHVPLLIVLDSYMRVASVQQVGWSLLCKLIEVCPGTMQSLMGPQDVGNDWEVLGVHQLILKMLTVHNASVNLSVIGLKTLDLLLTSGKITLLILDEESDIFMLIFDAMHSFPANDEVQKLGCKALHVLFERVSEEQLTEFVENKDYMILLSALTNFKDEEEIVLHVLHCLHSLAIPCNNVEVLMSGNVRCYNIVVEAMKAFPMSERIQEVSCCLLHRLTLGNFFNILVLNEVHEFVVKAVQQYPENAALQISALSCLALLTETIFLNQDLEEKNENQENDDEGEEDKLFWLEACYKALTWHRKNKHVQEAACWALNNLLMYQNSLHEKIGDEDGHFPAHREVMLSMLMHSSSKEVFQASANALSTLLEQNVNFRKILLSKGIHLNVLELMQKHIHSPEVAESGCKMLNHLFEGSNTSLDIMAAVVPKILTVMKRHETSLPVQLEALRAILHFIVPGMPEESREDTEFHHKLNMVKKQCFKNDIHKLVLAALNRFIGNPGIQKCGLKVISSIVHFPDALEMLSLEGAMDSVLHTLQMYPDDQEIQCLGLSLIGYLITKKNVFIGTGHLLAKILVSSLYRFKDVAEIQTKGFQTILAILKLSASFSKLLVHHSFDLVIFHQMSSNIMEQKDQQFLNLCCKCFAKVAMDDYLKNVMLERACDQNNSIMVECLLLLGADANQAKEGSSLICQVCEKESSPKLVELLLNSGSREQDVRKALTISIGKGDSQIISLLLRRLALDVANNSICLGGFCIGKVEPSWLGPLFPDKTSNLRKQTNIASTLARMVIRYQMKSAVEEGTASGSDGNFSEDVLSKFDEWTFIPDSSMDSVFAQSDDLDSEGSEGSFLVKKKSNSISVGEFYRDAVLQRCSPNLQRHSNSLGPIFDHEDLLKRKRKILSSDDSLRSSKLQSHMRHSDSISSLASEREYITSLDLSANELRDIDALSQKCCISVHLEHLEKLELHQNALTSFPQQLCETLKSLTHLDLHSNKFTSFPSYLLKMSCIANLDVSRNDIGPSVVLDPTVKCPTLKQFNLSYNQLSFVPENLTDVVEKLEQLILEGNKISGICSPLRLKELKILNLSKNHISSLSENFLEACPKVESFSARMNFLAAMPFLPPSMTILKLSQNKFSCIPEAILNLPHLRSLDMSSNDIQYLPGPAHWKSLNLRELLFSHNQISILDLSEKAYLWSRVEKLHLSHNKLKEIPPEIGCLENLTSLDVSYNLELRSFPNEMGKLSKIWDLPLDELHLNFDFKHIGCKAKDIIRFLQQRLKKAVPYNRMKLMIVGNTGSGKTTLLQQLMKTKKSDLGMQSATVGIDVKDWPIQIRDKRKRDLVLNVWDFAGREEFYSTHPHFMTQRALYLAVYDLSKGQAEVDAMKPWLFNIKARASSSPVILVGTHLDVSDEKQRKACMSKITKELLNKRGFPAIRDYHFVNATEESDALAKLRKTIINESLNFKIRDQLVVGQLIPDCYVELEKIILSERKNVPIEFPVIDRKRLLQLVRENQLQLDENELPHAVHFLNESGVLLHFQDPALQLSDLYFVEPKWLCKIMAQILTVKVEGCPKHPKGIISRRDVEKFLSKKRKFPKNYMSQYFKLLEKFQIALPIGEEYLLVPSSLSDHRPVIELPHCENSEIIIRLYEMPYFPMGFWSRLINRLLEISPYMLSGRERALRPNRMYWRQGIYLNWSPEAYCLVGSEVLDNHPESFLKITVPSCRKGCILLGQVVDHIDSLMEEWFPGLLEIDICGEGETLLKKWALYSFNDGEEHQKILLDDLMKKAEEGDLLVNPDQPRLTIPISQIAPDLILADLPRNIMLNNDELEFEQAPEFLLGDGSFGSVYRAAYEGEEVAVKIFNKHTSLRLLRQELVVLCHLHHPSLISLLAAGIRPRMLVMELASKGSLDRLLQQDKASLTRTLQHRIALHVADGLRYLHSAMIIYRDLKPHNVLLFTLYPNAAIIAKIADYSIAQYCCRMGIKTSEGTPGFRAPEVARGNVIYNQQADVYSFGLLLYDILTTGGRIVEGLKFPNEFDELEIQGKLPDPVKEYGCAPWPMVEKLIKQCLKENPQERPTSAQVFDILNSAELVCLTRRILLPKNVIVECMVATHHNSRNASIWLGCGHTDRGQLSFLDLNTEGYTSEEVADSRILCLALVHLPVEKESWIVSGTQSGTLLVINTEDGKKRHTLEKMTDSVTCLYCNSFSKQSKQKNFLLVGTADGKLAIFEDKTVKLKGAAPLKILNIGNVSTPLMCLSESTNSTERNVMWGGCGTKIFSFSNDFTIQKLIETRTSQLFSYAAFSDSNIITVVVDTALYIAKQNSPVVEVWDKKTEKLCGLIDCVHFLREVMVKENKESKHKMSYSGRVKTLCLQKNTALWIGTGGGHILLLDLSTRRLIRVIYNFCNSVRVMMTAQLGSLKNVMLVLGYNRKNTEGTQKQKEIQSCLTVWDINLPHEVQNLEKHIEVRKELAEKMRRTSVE

`CCCNC(=O)c1cccc(NS(=O)(=O)c2cccnc2)c1` [FX2149, N-propyl-3-(pyridine-3-sulfonamido)benzamide]: the “effect on brain LRRK2 GTP binding activity” value at LRRK2 [1] (10 mg/kg i.p.) is “reduced”. Besides, the “brain (BBB) penetration inferred from brain LRRK2 GTP binding and kinase inhibition” value on LRRK2 [1] (after i.p. injection) was “taken up into brains at a greater extent”. The “improvement of in vivo efficacy over 68” value on LRRK2 [1] (mouse, in vivo) is “more than 2 fold”. Also, the “TUNEL-positive cells expressing mutant G2019S-LRRK2” value in data set [2] is “significantly reduced”. Further, the “effect on brain LRRK2 kinase activity” value on LRRK2 [3] (10 mg/kg i.p.) is given as “significantly reduced”. Moreover, the “reduction of LRRK2 GTP binding activity” value in the data set on LRRK2 [4] (10 nM) is recorded as roughly 90%. In addition, in the data set with LRRK2 [4] (1 and 10 nM), the “effect on LRRK2 binding with GTP” value is given as “significantly reduced”; the “effect on mutant LRRK2 variants (G2019S and R1441C) bound with GTP” value was “reduced”. Further, the “reduction of LPS-induced microglia activation compared with vehicle treated LPS mice” value in data set [5] (10 mg/kg) is on record as 57%. For the same compound, in data set [5] (10 mg/kg i.p.), the “LPS-induced LRRK2-positive immunostaining compared with vehicle controls” value is “significantly reduced” and the anti-phosphorylated-LRRK2 immunoactivity entry is on record as “significantly reduced”. Further, in data set [5] (10 mg/kg i.p., twice daily for three days), the “isolectin B4 immunoactivity compared with the LPS alone treated group” value was roughly 43%. For the same compound, the “protection against mutant LRRK2-induced neurodegeneration” value in data set [6] (50-200 nM) is recorded as “protected”. Moreover, the “viability of cells expressing G2019S-LRRK2 compared with vehicle treated cells” value in data set [6] (treated for 48 hours) is recorded as “significantly increased”. Besides, the “reduction of G2019S-LRRK2 kinase activity (phosphorylation at S935 and S2032)” value on G2019S-LRRK2 (100 nM) is on record as roughly 90%.

`CC(C)NC(=O)c1cccc(NS(=O)(=O)c2cccnc2)c1` [FX2151, N-isopropyl-3-(pyridine-3-sulfonamido)benzamide]: the “effect on brain LRRK2 GTP binding activity” value on LRRK2 [1] (20 mg/kg i.p.) is given as “did not alter”. The “effect on brain LRRK2 phosphorylation (kinase activity)” value on LRRK2 [3] (20 mg/kg i.p.) is given as “did not alter”. Further, the “effect on wild type and PD-linked mutant LRRK2 GTP-binding activity” value in the data set on LRRK2 [4] is “did not alter”. The “effect on LRRK2 phosphorylation” value on G2019S-LRRK2 (10 μM) is recorded as “did not alter”.

On to `O=C1Nc2ccc(I)cc2/C1=C/c1cc(Br)c(O)c(Br)c1` [GW5074, reference compound], for which the “effect on wild type and PD-linked mutant LRRK2 GTP-binding activity” value in the data set on LRRK2 [4] is “did not alter”.

(Values after patent US9701627B2, “LRRK2 GTP binding inhibitors for treatment of Parkinson's disease and neuroinflammatory disorders” (University of Maryland, Baltimore, priority 2014, dated 2017).)
